Measurements: patent US9890147B2 (BAYER PHARMA AKTIENGESELLSCHAFT, priority 2012, dated 2018)

Key:
BRD4 (BD1) = target: T1, BRD4 (BD1) (Homo sapiens, UniProt O60885); assay: Binding assay BRD4/acetylated peptide H4 (TR-FRET protein-protein interaction assay)
T1 construct: with relatively long constructs also being possible, preferably amino acids 44-168; made in house; host or cells: E. coli
Summary of the method: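 His6-BRD4 BD1 (aa 67-152, E. coli), usually 10 nM, with biotinylated tetra-acetylated H4 peptide in HEPES pH 7.5 buffer; 11 compound concentrations 0.1 nM–20 μM in duplicate, 10 min preincubation, 1 h at 22 °C then ≥3 h at 4 °C. TR-FRET 665/620 ratio; IC50 by 4-parameter fit.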

MOLM-13 cells = assay: Cell proliferation assay (alamarBlue), MOLM-13; format: cell-based; conditions: Homo sapiens, 96 hours incubation, inhibition of cell proliferation
Summary of the method: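 Cells in RPMI1640/10% FCS read by alamarBlue fluorescence (ex 530, em 590 nm) after overnight 37 °C incubation, then treated at 1E-5 to 1E-8 M for 96 h. Pre-treatment values subtracted from endpoint values and compared with buffer-only wells; IC50 is 50% proliferation inhibition.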

B16F10 cells = assay: Cell proliferation assay (alamarBlue), B16F10; format: cell-based; conditions: Mus musculus, B16-F10, 96 hours incubation, inhibition of cell proliferation
Description: (§1) In accordance with the invention, the capability of the substances to inhibit cell proliferation was determined Cell viability was determined using the alamarBlue® reagent (Invitrogen) in a Victor X3 Multilabel Reader (Perkin Elmer). The excitation wavelength was 530 nm and the emission wavelenth […].
The B16F10 cells (ATCC, CRL-6475) were sown at a concentration of 300-500 cells/well in 100 μl growth medium (DMEM with phenol red, 10% FCS) on 96-well microtitre plates.
(§2) After an overnight incubation at 37° C., the fluorescence values (CI values) were determined. The plates were then treated with various substance dilutions (1E-5 M, 3E-6 M, 1E-6M, 3E-7 M, 1E-7 M, 3E-8 M, 1E-8 M) and incubated at 37° C. for 72 (MV4-11-, LOX-IMVI cells), 96 (MOLM-13-, B16F10-, MDA-MB-431-, Caov-3 cells), 120 (MOLP-8-, KMS-12-PE cells) or 168 (LAPC-4 cells) hours. The fluorescence values (CO values) were then determined. For the data analysis, the CI values were subtracted from the CO values and the results were compared between cells treated with different dilutions of the substance or with buffer solution only. These were used to calculate the IC 50 values (substance concentration required for 50% inhibition of cell proliferation).

MOLP-8 cells = assay: Cell proliferation assay (alamarBlue), MOLP-8; format: cell-based; conditions: Homo sapiens, 120 hours incubation, inhibition of cell proliferation
Summary of the method: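 MOLP-8 cells in RPMI1640 with 20% FCS, 4000 cells/well, treated overnight after seeding with substance at 1E-5 to 1E-8 M for 120 h at 37° C. Viability read by alamarBlue fluorescence (ex 530, em 590); pre-treatment values subtracted, compared with buffer-only cells to derive IC50.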

LAPC-4 cells = assay: Cell proliferation assay (alamarBlue), LAPC-4; format: cell-based; conditions: Homo sapiens, LAPC4; inhibition of cell proliferation, LAPC-4 (prostate cancer), 1 nM methyltrienolone, 168 hours
Description: as §1
The LAPC-4 cells (ATCC, PTA-1441TM) were sown at a concentration of 4000 cells/well in 100 μl growth medium (RPMI1640, 2 mM L-glutamine, 10% cFCS) on 96-well microtitre plates. A day later, the LAPC-4 cells were treated with 1 nM methyltrienolone and various substance dilutions.
as §2

MDA-MB-231 cells = assay: Cell proliferation assay (alamarBlue), MDA-MB-231; format: cell-based; conditions: Homo sapiens; inhibition of cell proliferation, MDA-MB-231 (breast carcinoma), 96 hours
Description: as §1
The MDA-MB-231 cells (DSMZ, ACC 732) were sown at a concentration of 4000 cells/well in 100 μl growth medium (DMEM/Ham's F12 medium, 10% FCS) on 96-well microtitre plates. The Caov-3 cells (ATCC, HTB-75) were sown at a concentration of 2000 cells/well in 100 μl growth medium (MEM Earle's medium, 10% FCS) on 96-well microtitre plates.
as §2

MV4-11 cells = assay: Cell proliferation assay (alamarBlue), MV4-11; format: cell-based; conditions: Homo sapiens, 72 hours incubation, inhibition of cell proliferation
Summary of the method: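 Cells seeded at 5000/well in RPMI1640 + 10% FCS, incubated overnight at 37° C, then treated with compound (1E-5 to 1E-8 M) for 72 h at 37° C. Viability by alamarBlue fluorescence (ex 530/em 590 nm); pre-treatment readings subtracted, IC50 derived versus buffer-treated cells.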

LOX-IMVI cells = assay: Cell proliferation assay (alamarBlue), LOX-IMVI; format: cell-based; conditions: Homo sapiens, 72 hours incubation, inhibition of cell proliferation
Summary of the method: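 Cells seeded at 1000/well in RPMI1640 with 10% FCS, incubated overnight at 37° C, then treated with dilutions from 1E-5 to 1E-8 M for 72 h. Viability read by alamarBlue fluorescence (ex 530/em 590 nm); pre-treatment values subtracted and compared with buffer-only cells to derive IC50.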

KMS-12-PE cells = assay: Cell proliferation assay (alamarBlue), KMS-12-PE; format: cell-based; conditions: Homo sapiens, 120 hours incubation, inhibition of cell proliferation
Summary of the method: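 KMS-12-PE myeloma cells in RPMI1640 with 20% FCS were exposed to compound (1E-5 to 1E-8 M) for 120 h at 37° C. AlamarBlue fluorescence (ex 530, em 590 nm) read before and after treatment; the difference versus buffer-treated cells gave IC50.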

Caov-3 cells = assay: Cell proliferation assay (alamarBlue), Caov-3; format: cell-based; conditions: Homo sapiens; inhibition of cell proliferation, Caov-3 (ovarian carcinoma), 96 hours
Summary of the method: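 Caov-3 (MEM Earle's, 10% FCS, 2000 cells/well) and MDA-MB-231 (DMEM/Ham's F12, 10% FCS, 4000 cells/well) were treated after overnight attachment with 1E-5 to 1E-8 M compound. Caov-3 exposure was 96 h. alamarBlue fluorescence (ex 530, em 590 nm) was read after background subtraction of day-0 values, and IC50 calculated versus buffer-treated cells.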

| Compound | IC50 (BRD4 (BD1)) [µM] | IC50 (MOLM-13 cells) [µM] | IC50 (B16F10 cells) [µM] | IC50 (MDA-MB-231 cells) [µM] | IC50 (MV4-11 cells) [µM] | IC50 (MOLP-8 cells) [µM] | IC50 (LAPC-4 cells) [µM] | IC50 (LOX-IMVI cells) [µM] | IC50 (KMS-12-PE cells) [µM] | IC50 (Caov-3 cells) [µM] |
| --- | --- | --- | --- | --- | --- | --- | --- | --- | --- | --- |
| CNC(=O)N1N=C(c2ccc(Cl)cc2)c2cc(OC(F)(F)F)ccc2C[C@@H]1C [Example 1.1, (4S)-1-(4-Chlorophenyl)-N,4-dimethyl-8-(trifluoromethoxy)-4,5-dihydro-3H-2,3-benzodiazepine-3-carboxamide] | 0.06 | 0.39 | 0.39 | 0.53 | – | 0.51 | 0.6 | – | – | – |
| CNC(=O)N1N=C(c2ccc(Cl)cc2)c2cc(C3CC3)ccc2CC1C (racemic) [Example 9, (±)-1-(4-chlorophenyl)-8-cyclopropyl-N,4-dimethyl-4,5-dihydro-3H-2,3-benzodiazepine-3-carboxamide] | 0.12 | 0.65 | 0.54 | 0.73 | – | – | 0.43 | – | – | – |
| CNC(=O)N1N=C(c2ccc(N3CCOCC3=O)cc2)c2cc(OC)c(OC)cc2C[C@@H]1C [Example 40.1, (4S)-7,8-dimethoxy-N,4-dimethyl-1-[4-(3-oxomorpholin-4-yl)phenyl]-4,5-dihydro-3H-2,3-benzodiazepine-3-carboxamide] | 0.12 | 0.96 | 0.79 | 1.28 | 0.76 | 0.59 | 0.29 | 0.33 | 0.08 | – |
| CNC(=O)N1N=C(c2ccc(Cl)cc2)c2cc(OC(F)(F)F)ccc2CC1C (racemic) [Example 1, (±)-1-(4-Chlorophenyl)-N,4-dimethyl-8-(trifluoromethoxy)-4,5-dihydro-3H-2,3-benzodiazepine-3-carboxamide] | 0.19 | 1.26 | 0.69 | 0.9 | – | – | 0.6 | – | – | – |
| CNC(=O)N1N=C(c2ccc(Cl)cc2)c2cc(N3CCOCC3)ccc2CC1C (racemic) [Example 11, (±)-1-(4-Chlorophenyl)-N,4-dimethyl-8-(morpholin-4-yl)-4,5-dihydro-3H-2,3-benzodiazepine-3-carboxamide] | 0.31 | 1.91 | 1.12 | 2.58 | – | – | 0.45 | – | – | – |
| CNC(=O)N1N=C(c2ccc(-c3c(C)noc3C)cc2)c2cc(OC)c(OC)cc2C[C@H]1C [Example 2.1, (4R)-1-[4-(3,5-Dimethyl-4-isoxazolyl)phenyl]-7,8-dimethoxy-N,4-dimethyl-4,5-dihydro-3H-2,3-benzodiazepine-3-carboxamide] | 0.25 | 1.51 | 1.05 | 1.39 | – | – | 0.71 | – | – | – |

Now from value to compound, other results behind:

| IC50 (BRD4 (BD1)) [µM] | IC50 (MOLM-13 cells) [µM] | IC50 (B16F10 cells) [µM] | IC50 (MDA-MB-231 cells) [µM] | IC50 (MV4-11 cells) [µM] | Compound | IC50 (MOLP-8 cells) [µM] | IC50 (LAPC-4 cells) [µM] | IC50 (LOX-IMVI cells) [µM] | IC50 (KMS-12-PE cells) [µM] | IC50 (Caov-3 cells) [µM] |
| --- | --- | --- | --- | --- | --- | --- | --- | --- | --- | --- |
| 0.08 | 0.19 | 0.11 | 0.17 | 0.12 | CNC(=O)N1N=C(c2ccc(-c3cccnc3Cl)cc2)c2cc(OC)c(OC)cc2CC1C (racemic) [Example 4, (±)-1-[4-(2-chloropyridin-3-yl)phenyl]-7,8-dimethoxy-N,4-dimethyl-4,5-dihydro-3H-2,3-benzodiazepine-3-carboxamide] | 0.17 | 0.09 | 0.45 | 0.11 | 0.32 |
| 0.08 | 0.17 | 0.18 | 0.31 | 0.11 | CNC(=O)N1N=C(c2ccc(-c3c(C)noc3C)cc2)c2cc(OC)c(OC)cc2CC1C (racemic) [Example 2, (±)-1-[4-(3,5-Dimethyl-4-isoxazolyl)phenyl]-7,8-dimethoxy-N,4-dimethyl-4,5-dihydro-3H-2,3-benzodiazepine-3-carboxamide] | 0.12 | 0.24 | 0.43 | 0.09 | 0.31 |
| 0.03 | 0.08 | 0.1 | 0.15 | 0.88 | CNC(=O)N1N=C(c2ccc(-c3c(C)nn(C)c3C)cc2)c2cc(OC)ccc2C[C@@H]1C [Example 22, (4S)-8-methoxy-N,4-dimethyl-1-[4-(1,3,5-trimethyl-1H-pyrazol-4-yl)phenyl]-4,5-dihydro-3H-2,3-benzodiazepine-3-carboxamide] | 0.09 | 0.06 | 0.24 | 0.11 | 0.11 |
| 0.05 | 0.11 | 0.1 | 0.13 | 0.07 | CNC(=O)N1N=C(c2ccc(N3CCN(C)CC3)cc2)c2cc(OC)c(OC)cc2C[C@@H]1C [Example 127.1, (4S)-7,8-Dimethoxy-N,4-dimethyl-1-[4-(4-methylpiperazin-1-yl)phenyl]-4,5-dihydro-3H-2,3-benzodiazepine-3-carboxamide] | 0.06 | 0.04 | 0.29 | 0.09 | 0.17 |
| 0.02 | 0.07 | 0.1 | 0.14 | 0.05 | CNC(=O)N1N=C(c2ccc(N3CCC(O)CC3)cc2)c2cc(OC)c(OC)cc2C[C@@H]1C [Example 130.1, (4S)-1-[4-(4-hydroxypiperidin-1-yl)phenyl]-7,8-dimethoxy-N,4-dimethyl-4,5-dihydro-3H-2,3-benzodiazepine-3-carboxamide] | 0.05 | 0.05 | 0.19 | 0.07 | 0.003 |
| 0.09 | 0.38 | 0.19 | 0.28 | – | CNC(=O)N1N=C(c2ccc(Cl)cc2)c2cc(-c3ccncc3)ccc2CC1C (racemic) [Example 8, (±)-1-(4-Chlorophenyl)-N,4-dimethyl-8-(pyridin-4-yl)-4,5-dihydro-3H-2,3-benzodiazepine-3-carboxamide] | – | 0.18 | – | – | – |
| 0.06 | 0.13 | 0.11 | 0.2 | 0.1 | CNC(=O)N1N=C(c2ccc(-c3c(C)noc3C)cc2)c2cc(OC)c(OC)cc2C[C@@H]1C [Example 2.2, (4S)-1-[4-(3,5-Dimethyl-4-isoxazolyl)phenyl]-7,8-dimethoxy-N,4-dimethyl-4,5-dihydro-3H-2,3-benzodiazepine-3-carboxamide] | 0.12 | 0.09 | 0.33 | 0.11 | 0.25 |
